Data reported in paper PMC8036603, “Small Molecule Inhibitors of White Spot Syndrome Virus: Promise in Shrimp Seedling Culture” (International Journal of Molecular Sciences, 2021).

Key:
[1] = tested on: white spot syndrome virus (WSSV); assay: Anti-WSSV activity in shrimp larvae, co-incubation, copy number of viral genome by RT-qPCR; type: in vivo, Litopenaeus vannamei
[2] = Solubility / precipitation in aquacultural water; type: physicochemical
Method: Prior to evaluation of the anti-WSSV activity of coumarins, the safety doses for larvae needed to be determined. […] In contrast, the electron-withdrawing group was more toxic than the electron-donating group, with the LC50 of A5‒A8 being <5 mg/L at 72 h. […] Based on preliminary analysis of the structure-activity relationship (SAR) of similar spatial structures with different substituents of electron-donating and electron-withdrawing groups to coumarins A1, B1, and C1, we considered that […] of compounds; this provides a basis for further research.
All conventional reagents and solvents are purchased directly from commercial companies and no further purification is required. Organic solvents were purchased from Sinopharm chemical reagent Co., Ltd. and purified by distillation and moisture was excluded from the glass apparatus using CaCl2 drying tubes. Throughout this study, silica gel H (200–300 mesh; Qingdao Marine Chemical Factory, Qingdao, China) was used for the column chromatography. For thin layer chromatographic (TLC) plates, Silica gel (GF254) (Qingdao Marine Chemical Factory, Qingdao, China) were used for thin layer chromatographic (TLC) analysis, and all of the spots and bands were detected by UV irradiation (254, 365 nm). The intermediates and products were characterized by electrospray ionization mass spectrometry (TripleTOF5600þ; AB SCIEX Pte. Ltd., Boston, MA, USA), ^1H NMR and ^13C NMR (Bruker AM500 spectrometer; Bruker Corporation, Berne, Switzerland). The derivatives were dissolved in 100% dimethyl sulfoxide (DMSO; Beyotime Biotechnology, Haimen, China), stored at 4 °C prior to antiviral evaluation, and used within 6 months. For solubility, the stock solutions, at a concentration of 50 mg/mL, were sonicated for approximately 10 min to ensure that the derivatives were fully dissolved and mixed.

[3] = tested on: Shrimp (L. vannamei) larvae; assay: Acute toxicity assay in shrimp larvae; type: in vivo, Litopenaeus vannamei; conditions: after 72 h of exposure
Method: Shrimp (L. vannamei) larvae (total length: 0.5 ± 0.04 cm, body weight: 4.2 ± 0.4 mg, mean ± SD) were provided by Zhejiang Mariculture Research Institute Qingjiang Station (Wenzhou, China). The larvae were maintained in a culture pond at 28 °C, fed four times a day with commercial feed pellets, and collected randomly for PCR testing to verify the WSSV-free status prior to the trial.
Acute toxicity of the coumarin derivatives was investigated by exposing larvae to a range of compound concentrations, from 0.1 mg/L to 100 mg/L of coumarin derivatives, where the dose setting was based on the data from preliminary tests in our laboratory. A DMSO-control (2%, v/v, the highest percentage of DMSO in treatments) served as the control. During the experiment, every 20 larvae were moved into six-well plates filled with 6 mL/per well freshly prepared test solutions for a 72-h incubation at 28 °C with a natural photoperiod. […] To avoid deterioration of water quality, dead shrimps were immediately removed at the point of observation. Three replicate experiments were performed.
Compound response curves were represented by a logistic sigmoidal function with a maximal effect level (Amax) and Hill coefficient representing the sigmoidal transition (Origin 8.1; http://www.originlab.com, accessed on 25 March 2021). Statistical analyses were performed using SPSS (version 18.0) statistical software (SPSS Inc., Chicago, IL, USA). The LC50 and EC50 values with 95% CIs were calculated using probit analysis. Virus titers were log10-transformed prior to statistical analyses. Unpaired Student’s t-tests were used to compare coumarin-treated samples and negative-control DMSO samples for determining significance and data are presented as mean values ± SD.

[4] = tested on: white spot syndrome virus (WSSV); conditions: buffer; cited from earlier work
[5] = test range 0.4~100 mg/L, aquacultural water, LC50 NONE

SMILES: N#CC1=C(N)Oc2c(c(=O)oc3ccccc23)C1c1ccc([N+](=O)[O-])cc1 (centres unmarked) [C8]
- EC50 ([1]; Whispovirus xiabaidian, 72 h, read-out: EC50 (mg/L; 95% CI), median effective concentration, WSSV-infected larvae, copy number of viral genome, 72 h, 95% CI in brackets): 6.6 mg/L
- inhibitory efficiency on WSSV replication ([1]; six-point dose-response, viral genome copy number in larvae): exceeded 90%
- solubility in aquacultural water [2]: insoluble
- lowest precipitation concentration [2, 5]: NONE (16) mg/L
- lowest precipitation concentration (bracketed value in LC50 48 h column) [2, 5]: NONE (16) mg/L
- lowest precipitation concentration (bracketed value in LC50 72 h column) [2, 5]: NONE (16) mg/L
- signs of toxicity at the saturation concentration [3]: No signs of toxicity were observed
- half-life in aquacultural and sterilized deionized water [4]: 24 to 48 h
